# Experimental data: patent US20170202802A1, “COMPOSITIONS, KITS AND METHODS FOR NUTRITION SUPPLEMENTATION” (Exeltis USA, Inc., priority 2016, published 2017)
# Assay: Double-blind, placebo controlled six-month study of nutritional status in pregnant and lactating women (Example 6)
# Type: in vivo, human
# Details: co-administration of docusate sodium with supplements
# Experimental: A study is undertaken to evaluate the effectiveness of the compositions of the present invention in the treatment of patients. The objective of the study is to determine whether oral intake of the compositions results in an improvement of the nutritional status of patients with regard to the specific vitamins and minerals contained in the administered compositions.
# A double-blind, placebo controlled study is conducted over a six-month period. A total of 120 subjects (60 pregnant women entering the second trimester of pregnancy and 60 lactating women), aged 20-35 years, are chosen for the study. An initial assessment of the nutritional status of each woman is conducted. Vitamin A and vitamin B6 are measured using high performance liquid chromatography. […] Vitamin B2 levels are determined by assessment of erythrocyte glutathione reductase activity. Vitamin B3 levels are assessed by measuring urinary excretion of N′-methylnicotinamide and its pyridone. Vitamin B9 is measured by radioimmunoassay (RIA), specifically. […] Vitamin B12 is measured by RIA using human intrinsic factor as a binder and also by measuring serum levels of vitamin B12. Vitamin C levels are measured by spectrophotometric and colorimetric methods and also by measuring serum levels of Vitamin C. Vitamin D is measured using an extraction double-antibody RIA (Dia Sorin, Inc., Stillwater, Minn.). […] Iodine levels are measured by HPLC. […]
smiles,measurement,value
CCCCC(CC)COC(=O)CC(C(=O)OCC(CC)CCCC)S(=O)(=O)[O-].[Na+] (stereo not shown) [docusate sodium],constipation that can result from iron supplementation (frequency of normal bowel movements before and after receiving supplements),mitigates constipation
